Counter-ions that a name gives are not always drawn.
Legend:
[1] = molecular target: human RORγt LBD (Homo sapiens (Human), UniProt P51449); assay: RORγt reporter assay (GAL4-RORγt LBD luciferase in HEK293T cells); type: cell-based; conditions: for IC50: HEK293T cells, 24 hours compound treatment; for inhibition at 6 µM: HEK-293T, read-out: RORγt reporter Assay, % inhibition @ 6 μM, HEK293T cells, 6 μM
Description: A reporter assay was used to test functional activity of RORγt modulatory compounds on transcriptional activation driven by the RORγt LBD. Cells used in the assay were co-transfected with two constructs. The first construct, pBIND-RORγt LBD, contained the wild type human RORγt LBD fused to the DNA binding domain of the GAL4 protein. The second construct, pGL4.31 (Promega Cat no. C935A), contained multiple GAL4 responsive DNA elements upstream of firefly luciferase. […] The mutant construct was called pBIND-RORγt-AF2.
The pBIND vector contains the GAL4 DNA Binding Domain (GAL4 DBD) and the renilla luciferase gene under control of the SV40 promoter. Renilla luciferase expression serves as a control for transfection efficiency and cell viability.
The reporter assay was performed by transiently transfecting HEK293T cells with 5 ng of pBIND-RORγt LBD or pBIND-RORγt LBD-AF2 and 5 μg pGL4.31 (Promega Cat no. C935A) using Fugene 6 ([…] Cat no. E2691) at a 1:6 ratio of DNA: Fugene 6 in a T-75 flask in which cells were at least 80% confluent. Twenty four hours after bulk transfection, cells were plated into 96-well plates at 50,000 cells/well in phenol-red free DMEM containing 5% Lipid Reduced FCS and Pen/Strep. Six hours after plating, cells were treated with compounds for 24 hours. Media was removed and cells were lysed with 50 μL 1× Glo Lysis Buffer (Promega). Dual Glo Luciferase Reagent (50 μL/well) was then added and firefly luciferase luminescence was read on an Envision after a ten minute incubation. Finally, Stop and Glo reagent (50 μL/well) was added and renilla luciferase luminescence was read on an Envision after a ten minute incubation. To calculate the effect of compounds on RORγt activity, the ratio of firefly to renilla luciferase was determined and plotted against compound concentration. Agonist compounds increase RORγt-driven luciferase expression, and antagonist or inverse agonist compounds decrease luciferase expression.

[2] = molecular target: human RORγt ligand binding domain (RORγt LBD) (Homo sapiens (Human), UniProt P51449); assay: RORγt ThermoFluor assay (thermal shift binding affinity); conditions: estimated from thermal shift
Procedure: This approach is applicable to a wide variety of systems, and rigorous in theoretical interpretation through quantitation of equilibrium binding constants (KD).
The shift in the melting point described as a ΔTm is proportional to the concentration and affinity of the ligand.
RORγt ThermoFluor® Assay Construct
Protein and compound solutions are dispensed into black 384-well polypropylene PCR microplates (Abgene) and overlayed with silicone oil (1 μL, Fluka, type DC 200) to prevent evaporation.
Bar-coded assay plates are robotically loaded onto a thermostatically controlled PCR-type thermal block and then heated at a typical ramp-rate of 1° C./min for all experiments. Fluorescence was measured by continuous illumination with UV light (Hamamatsu LC6) supplied via fiber optic and filtered through a band-pass filter (380-400 nm; >6 OD cutoff). Fluorescence emission of the entire 384-well plate was detected by measuring light intensity using a CCD camera (Sensys, Roper Scientific) filtered to detect 500±25 nm, resulting in simultaneous and independent readings of all 384 wells. Images were collected at each temperature, and the sum of the pixel intensity in a given area of the assay plate was recorded versus temperature. Reference wells contained RORγt without compounds, and the assay conditions were as follows: • 0.065 mg/mL RORγt • 60 μM 1,8-ANS • 100 mM Hepes, pH 7.0 • 10 mM NaCl • 2.5 mM GSH • 0.002% Tween-20
Project compounds were arranged in a pre-dosed mother plate (Greiner Bio-one) wherein compounds are serially diluted in 100% DMSO by 1:2 from a high concentration of 10 mM over 12 columns within a series (column 12 is a reference well containing DMSO, no compound). The compounds were robotically dispensed directly into assay plates (1×=46 nL) using a Hummingbird capillary liquid handling instrument (Digilab). Following compound dispense, protein and dye in buffer was added to achieve the final assay volume of 3 μL, followed by 1 μL of silicone oil.

Chain of human RORγt ligand binding domain (RORγt LBD) (P51449 other isoform, or with tags, fused parts or gaps): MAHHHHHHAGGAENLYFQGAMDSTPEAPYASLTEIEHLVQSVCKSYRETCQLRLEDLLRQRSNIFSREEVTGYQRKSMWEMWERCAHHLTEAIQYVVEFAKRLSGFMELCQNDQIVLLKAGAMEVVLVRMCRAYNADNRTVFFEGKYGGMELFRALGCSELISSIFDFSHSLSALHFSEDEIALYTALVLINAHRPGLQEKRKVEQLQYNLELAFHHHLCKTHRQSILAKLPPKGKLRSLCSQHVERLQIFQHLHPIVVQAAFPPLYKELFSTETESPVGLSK
Chain of human RORγt LBD (P51449 258-518): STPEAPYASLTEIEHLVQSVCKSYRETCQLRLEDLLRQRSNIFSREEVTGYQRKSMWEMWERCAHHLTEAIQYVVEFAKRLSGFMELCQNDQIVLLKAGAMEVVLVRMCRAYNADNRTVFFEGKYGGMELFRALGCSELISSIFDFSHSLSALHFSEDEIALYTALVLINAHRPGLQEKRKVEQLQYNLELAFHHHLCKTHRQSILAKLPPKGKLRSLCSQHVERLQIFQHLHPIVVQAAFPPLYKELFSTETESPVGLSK

Compound	IC50 [1]	inhibition at 6 µM [1]	Kd [2]
CCOc1nc2ccc(C(O)(c3cncs3)c3cncn3C)cc2cc1Cc1ccc(OC)cc1 (stereo not drawn) [Example 24, (2-Ethoxy-3-(4-methoxybenzyl)quinolin-6-yl)(1-methyl-1H-imidazol-5-yl)(thiazol-5-yl)methanol.TFA]	> 6 µM	35%	0.75 µM
COc1nc2ccc(C(O)(c3ccc(N(C)C)cc3)c3cncn3C)cc2c(Cl)c1Cc1ccc(-n2cccn2)cc1 (stereo not drawn) [Example 26, (3-(4-(1H-Pyrazol-1-yl)benzyl)-4-chloro-2-methoxyquinolin-6-yl)(4-(dimethylamino)phenyl)(1-methyl-1H-imidazol-5-yl)methanol.TFA]	0.48 µM	85%	0.22 µM
COc1nc2c(C)cc(C(O)(c3ccc(C(F)(F)F)nc3)c3cncn3C)cc2c(Cl)c1Cc1ccc(-n2cccn2)cc1 (stereo not drawn) [Example 29A, (3-(4-(1H-Pyrazol-1-yl)benzyl)-4-chloro-2-methoxy-8-methylquinolin-6-yl)(1-methyl-1H-imidazol-5-yl)(6-(trifluoromethyl)pyridin-3-yl)methanol]	0.091 µM	96%	0.0048 µM
COc1nc2ccc(C(O)(c3ccc(N(C)C)cc3)c3cccnc3)cc2c(Cl)c1Cc1ccc(-n2cccn2)cc1 (stereo not drawn) [Example 42, (3-(4-(1H-Pyrazol-1-yl)benzyl)-4-chloro-2-methoxyquinolin-6-yl)(4-(dimethylamino)phenyl)(pyridin-3-yl)methanol]	0.18 µM	96%	0.36 µM
OC(c1ccc(F)cc1)(c1cccnc1)c1ccc2nc(Cl)c(Cc3ccc(-n4cccn4)cc3)c(Cl)c2c1 (stereo not drawn) [Example 46, (3-(4-(1H-Pyrazol-1-yl)benzyl)-2,4-dichloroquinolin-6-yl)(4-fluorophenyl)(pyridin-3-yl)methanol]	0.052 µM	89%	0.022 µM
Cn1cc(C(O)(c2ccc(Cl)cc2)c2ccc3nc(Cl)c(Cc4ccccc4)c(Cl)c3c2)cn1 (stereo not drawn) [Example 49, (3-Benzyl-2,4-dichloroquinolin-6-yl)(4-chlorophenyl)(1-methyl-1H-pyrazol-4-yl)methanol.TFA]	1.8 µM	77%	0.33 µM
Cc1nc2ccc(C(O)(c3ccc(Cl)cc3)c3cncn3C)cc2c(C)c1Cc1ccccc1 (stereo not drawn) [Example 50, (3-Benzyl-2,4-dimethylquinolin-6-yl)(4-chlorophenyl)(1-methyl-1H-imidazol-5-yl)methanol.TFA]	> 6 µM	71%	0.32 µM
CNC(=O)c1nc2ccc(C(O)(c3ccc(F)cc3)c3cncn3C)cc2c(C(F)(F)F)c1Cc1ccccc1 (stereo not drawn) [Example 51, 3-Benzyl-6-((4-fluorophenyl)(hydroxy)(1-methyl-1H-imidazol-5-yl)methyl)-N-methyl-4-(trifluoromethyl)quinoline-2-carboxamide]	1.9 µM	98%	1.1 µM
Cn1cncc1C(O)(c1ccc(Cl)cc1)c1ccc2nc(O)c(Cc3ccc(-n4cccn4)cc3)c(Cl)c2c1 (stereo not drawn) [Example 55A, 3-(4-(1H-Pyrazol-1-yl)benzyl)-4-chloro-6-((4-chlorophenyl)(hydroxy)(1-methyl-1H-imidazol-5-yl)methyl)quinolin-2-ol]	1.7 µM	94%	7.6 µM
COc1nc2c(C)cc(C(O)(c3cncn3C)c3cncn3C)cc2c(Cl)c1Cc1ccc(-n2cccn2)cc1 [Example 56, (3-(4-(1H-Pyrazol-1-yl)benzyl)-4-chloro-2-methoxy-8-methylquinolin-6-yl)bis(1-methyl-1H-imidazol-5-yl)methanol]	0.012 µM	102%	0.00029 µM
COc1nc2c(C)cc(C(O)(c3cncn3C)c3cncn3C)cc2c(Cl)c1Cc1ccc(S(C)(=O)=O)cc1 [Example 57, (4-Chloro-2-methoxy-8-methyl-3-(4-(methylsulfonyl)benzyl)quinolin-6-yl)bis(1-methyl-1H-imidazol-5-yl)methanol.Succinate]	0.057 µM	100%	0.0084 µM
CON(C)c1nc2ccc(C(O)(c3ccc(C(F)(F)F)nc3)c3cncn3C)cc2c(Cl)c1Cc1ccc(-n2cccn2)cc1 (stereo not drawn) [Example 67A, (3-(4-(1H-Pyrazol-1-yl)benzyl)-4-chloro-2-(methoxy(methyl)amino)quinolin-6-yl)(1-methyl-1H-imidazol-5-yl)(6-(trifluoromethyl)pyridin-3-yl)methanol TFA?]	0.044 µM	115%	0.018 µM
Cn1cncc1C(O)(c1ccc(C(F)(F)F)nc1)c1ccc2nc(N3CCC3)c(Cc3ccc(-n4cccn4)cc3)c(Cl)c2c1 (stereo not drawn) [Example 68A, (3-(4-(1H-Pyrazol-1-yl)benzyl)-2-(azetidin-1-yl)-4-chloroquinolin-6-yl)(1-methyl-1H-imidazol-5-yl)(6-(trifluoromethyl)pyridin-3-yl)methanol]	0.21 µM	99%	0.0083 µM
COc1nc2ccc(C(O)(c3ccc(Cl)cc3)c3cncn3C)cc2c(C#N)c1Cc1ccc(-n2cccn2)cc1 (stereo not drawn) [Example 69, 3-(4-(1H-Pyrazol-1-yl)benzyl)-6-((4-chlorophenyl)(hydroxy)(1-methyl-1H-imidazol-5-yl)methyl)-2-methoxyquinoline-4-carbonitrile]	0.17 µM	103%	0.05 µM
COc1nc2ccc(C(O)(c3cnnn3C)c3cnc(C)n3C)cc2c(C#N)c1Cc1ccc(C(F)(F)F)cc1 (stereo not drawn) [Example 81A, 6-((1,2-Dimethyl-1H-imidazol-5-yl)(hydroxy)(1-methyl-1H-1,2,3-triazol-5-yl)methyl)-2-methoxy-3-(4-(trifluoromethyl)benzyl)quinoline-4-carbonitrile]	0.0021 µM	104%	0.00012 µM
CCc1nc2ccc(C(O)(c3cnnn3C)C3CN(C(=O)OC(C)(C)C)C3)cc2c(Cl)c1Cc1ccc(C(F)(F)F)cc1 (stereo not drawn) [Example 89, tert-Butyl 3-((4-chloro-2-ethyl-3-(4-(trifluoromethyl)benzyl)quinolin-6-yl)(hydroxy)(1-methyl-1H-1,2,3-triazol-5-yl)methyl)azetidine-1-carboxylate]	0.021 µM	102%	0.00077 µM
CCc1nc2ccc(C(O)(c3cnnn3C)C3CN(C(C)=O)C3)cc2c(Cl)c1Cc1ccc(C(F)(F)F)cc1 (stereo not drawn) [Example 90A, 1-(3-((4-Chloro-2-ethyl-3-(4-(trifluoromethyl)benzyl)quinolin-6-yl)(hydroxy)(1-methyl-1H-1,2,3-triazol-5-yl)methyl)azetidin-1-yl)ethanone]	0.011 µM	98%	0.00044 µM
COc1nc2ccc(C(O)(c3ccc(C(F)(F)F)nc3)c3cncn3C)cc2c(Cl)c1Cc1ccc(C(F)(F)F)nc1 (stereo not drawn) [Example 94A, (4-Chloro-2-methoxy-3-((6-(trifluoromethyl)pyridin-3-yl)methyl)quinolin-6-yl)(1-methyl-1H-imidazol-5-yl)(6-(trifluoromethyl)pyridin-3-yl)methanol]	0.069 µM	98%	0.012 µM
COc1nc2ccc(C(O)(c3ccc(C#N)cc3)c3cncn3C)cc2c(C#N)c1Cc1ccc(C(F)(F)F)cc1 (stereo not drawn) [Example 96A, 6-((4-cyanophenyl)(hydroxy)(1-methyl-1H-imidazol-5-yl)methyl)-2-methoxy-3-(4-(trifluoromethyl)benzyl)quinoline-4-carbonitrile]	0.0078 µM	99%	0.0019 µM

Reference: patent publication US9290476B2, “Methylene linked quinolinyl modulators of RORγt” (Janssen Pharmaceutica NV, priority 2012, dated 2016)
